Results: patent US8932597B2 (priority 2008, dated 2015)

Tested on: anti-M2 human monoclonal antibody Z3G1
Assay type: binding

Q: Which “Signal (peptides that show specific binding to Z3G1)” value does the source give for “1514 (CVETPIRNEWLLTEVETPICETPIRNEWG; epitope peptide; MISC_FEATURE (1)..(1): C is an attachment site for a CLIP; MISC_FEATURE (10)..(10): W is an attachment site for a CLIP; MISC_FEATURE (11)..(11): L is an attachment site for a CLIP; MISC_FEATURE (29)..(29): G is an attachment site for a CLIP) [compound 1514]” here?
A: 2575

Q: For “1329 (MSLLCEVETCIRNE; epitope peptide) [compound 1329]”, which “Signal (peptides that bind to Z3G1)” value is on record?
A: 2589

Q: For “1349 (MSLLCEVGCSCLCEV; epitope peptide) [compound 1349]”, which “Signal (peptides that bind to Z3G1)” value is on record?
A: 2586

Q: “1555 (SLLTCVGSLLCEV; epitope peptide) [compound 1555]” was tested. Which “Signal (peptides that show specific binding to Z3G1)” value did it give?
A: 2264

Q: With “1292 (MSLLREVETPIRNEWGCRCN; epitope peptide) [compound 1292]” as the substance, how does the “Signal (peptides that bind to Z3G1)” value read?
A: 2699

Q: “1340 (MSCLTEVGMSLLCEV; epitope peptide) [compound 1340]” was tested. Which “Signal (peptides that bind to Z3G1)” value did it give?
A: 2341

Q: How did the “Signal (peptides that bind to Z3G1)” value turn out when “1299 (MSLLTEVATPIRNEWGCRCN; epitope peptide) [compound 1299]” was run?
A: 2633

Q: For “1279 (MSLLAEVETPIRNEWGCRCN; epitope peptide) [compound 1279]”, which “Signal (peptides that bind to Z3G1)” value is on record?
A: 2807

Q: For “1550 (SLLCEVGCLLTEV; epitope peptide) [compound 1550]”, which “Signal (peptides that show specific binding to Z3G1)” value is on record?
A: 1997

Q: For “1295 (MSLLWEVETPIRNEWGCRCN; epitope peptide) [compound 1295]”, which “Signal (peptides that bind to Z3G1)” value is on record?
A: 2531

Q: For “1373 (SLLCEVETPIRNEWGC; epitope peptide) [compound 1373]”, which “Signal (peptides that bind to Z3G1)” value is on record?
A: 2281

Q: “1562 (SLLCEVGSCLCEC; epitope peptide) [compound 1562]” was tested. Which “Signal (peptides that show specific binding to Z3G1)” value did it give?
A: 2614

Q: For “1290 (MSLLPEVETPIRNEWGCRCN; epitope peptide) [compound 1290]”, which “Signal (peptides that bind to Z3G1)” value is on record?
A: 2728

Q: “MSLLTEVETPIRNEWGCRCN (epitope peptide) [SEQ ID NO: 1149]” was tested. Which “Binding to Z3G1 (in words)” value did it give?
A: very best specific binder

Q: How did the “Signal (peptides that bind to Z3G1)” value turn out when “1314 (CMSLCTEVETPIRNE; epitope peptide) [compound 1314]” was run?
A: 1705

Q: “1285 (MSLLIEVETPIRNEWGCRCN; epitope peptide) [compound 1285]” was tested. Which “Signal (peptides that bind to Z3G1)” value did it give?
A: 2371

Q: How did the “Signal (peptides that bind to Z3G1)” value turn out when “1310 (MSLLTEVWTPIRNEWGCRCN; epitope peptide) [compound 1310]” was run?
A: 2546

Q: How did the “Signal (peptides that bind to Z3G1)” value turn out when “1345 (MSCLCECGMSLLCEV; epitope peptide) [compound 1345]” was run?
A: 1307

Q: Which “Signal (peptides that bind to Z3G1)” value does the source give for “1262 (MQLLTEVETPIRNEWGCRCN; epitope peptide) [compound 1262]” here?
A: 2526

Q: For “1344 (MCLCTCVGMSLLCEV; epitope peptide) [compound 1344]”, which “Signal (peptides that bind to Z3G1)” value is on record?
A: 2431

Q: With “1316 (CSLLCEVETPIRNE; epitope peptide) [compound 1316]” as the substance, how does the “Signal (peptides that bind to Z3G1)” value read?
A: 2527

Q: “1383 (CLLTEVECPIRNEWG; epitope peptide) [compound 1383]” was tested. Which “Signal (peptides that bind to Z3G1)” value did it give?
A: 2157

Q: How did the “Signal (peptides that bind to Z3G1)” value turn out when “1269 (MSVLTEVETPIRNEWGCRCN; epitope peptide) [compound 1269]” was run?
A: 2111

Q: Which “Signal (peptides that bind to Z3G1)” value does the source give for “1305 (MSLLTEVKTPIRNEWGCRCN; epitope peptide) [compound 1305]” here?
A: 2708
